Our source for the IC50 values is US10363257B2 (ZENITH EPIGENETICS LTD., priority 2013, dated 2019).

Molecules are shown by their SMILES.

In assay [1] the target is T1, Brd4 bromodomain 1 (BRD4(1)) (Homo sapiens, UniProt O60885).
T1 construct: made in house; host or cells: E. coli BL21(DE3)
The assay can be described thus: Inhibition of tetra-acetylated histone H4 binding to Brd4 bromodomain 1 (TR-FRET). The following applies: tetra-acetylated histone H4 peptide, first bromodomain of Brd4. Put shortly:
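His-tagged BRD4(1) from E. coli (200 nM) with biotinylated tetra-acetylated H4 peptide (25-50 nM), Eu-cryptate streptavidin and XL665 anti-His, in HEPES pH 7.4/phosphate/KF buffer, 0.2% DMSO. After 2 h at room temperature, TR-FRET 665/620 nm ratio read; IC50 from dose-response curves.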

Another assay relates to c-myc. Description: Inhibition of c-myc expression (mRNA, real-time PCR) in MV4-11 cells. In kind it is cell-based. The conditions noted are these: Human AML MV4-11 cells, 3 h, cMYC mRNA. An outline of the steps: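 MV4-11 cells treated 3 h at 37° C with increasing compound concentrations or 0.1% DMSO, in triplicate. cMYC mRNA quantified by one-step TaqMan real-time PCR, Ct normalized to internal control (Cyclophilin primers used), fold expression relative to control.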

The test system of the next assay is human AML MV-4-11 cells. The assay can be described thus: Inhibition of cell proliferation in MV4-11 cells (CellTiter Aqueous One). In kind it is cell-based. The conditions noted are these: MV4-11, 72 h. Put shortly:
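Exponentially growing MV-4-11 cells (5×10^4/well) were treated immediately with two-fold dilutions of compound from 30 μM to 0.2 μM, in triplicate, for 72 h at 37° C, 5% CO2. Viability was measured by MTS absorbance at 490 nm after 3–4 h. Proliferation relative to DMSO after blank correction gave IC50.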

For another assay, the system named is hIL-6 mRNA. Description: Inhibition of hIL-6 mRNA transcription in LPS-stimulated U937 cells. In kind it is cell-based. The conditions noted are these: Homo sapiens, U-937; PMA-differentiated U937 cells, 1 h pretreatment, 1 ug/mL LPS stimulation, 3 h; read-out: IL-6 activity (Inhibition of hIL-6 mRNA Transcription). An outline of the steps: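 U937 cells differentiated 3 days with 60 ng/mL PMA, pretreated 1 h with compound (0.1% DMSO), then stimulated with 1 ug/mL E. coli LPS for 3 h at 37 °C. hIL-6 mRNA measured by one-step TaqMan RT-qPCR, normalized to cyclophilin. Fold expression relative to control; triplicate wells.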

Take `Cc1noc(C)c1-c1cnc2cnn(Cc3ccccc3)c2c1` [compound 92, 4-(1-benzyl-1H-pyrazolo[4,3-b]pyridin-6-yl)-3,5-dimethylisoxazole]: the IC50 in assay [1] was not above 300 nM; in the assay with c-myc, 300 to 3000 nM; with human AML MV-4-11 cells, 300 to 3000 nM; with hIL-6 mRNA it was 300 to 3000 nM.
For the compound `Cc1noc(C)c1-c1cnc2cnn(Cc3ccc(Cl)cc3)c2c1` [compound 93, 4-(1-(4-chlorobenzyl)-1H-pyrazolo[4,3-b]pyridin-6-yl)-3,5-dimethylisoxazole], the IC50 in assay [1] was not above 300 nM; in the assay on c-myc, 3000 to 30000 nM; in the assay with human AML MV-4-11 cells it was 3000 to 30000 nM; with hIL-6 mRNA, 300 to 3000 nM.
Turning to `Cc1nc2c(N)cc(-c3ccnn3C)cc2n1Cc1ccccc1` [compound 94, 1-benzyl-2-methyl-6-(1-methyl-1H-pyrazol-5-yl)-1H-benzo[d]imidazol-4-amine], the IC50 in assay [1] was not above 300 nM; with c-myc, 300 to 3000 nM; in the assay with human AML MV-4-11 cells, 300 to 3000 nM; in the assay on hIL-6 mRNA, 300 to 3000 nM.
Turning to `Cc1noc(C)c1-c1cnc2nc(C)n(Cc3ccc(Cl)c(Cl)c3)c2c1` [compound 95, 4-(1-(3,4-dichlorobenzyl)-2-methyl-1H-imidazo[4,5-b]pyridin-6-yl)-3,5-dimethylisoxazole], the IC50 in assay [1] is not above 300 nM; in the assay with c-myc, 300 to 3000 nM; with human AML MV-4-11 cells, 300 to 3000 nM; with hIL-6 mRNA it was 300 to 3000 nM.
Take `Cc1noc(C)c1-c1cc(N)c2nc(C)n(C(C)c3ccccc3)c2c1` (stereo not drawn) [compound 96, 6-(3,5-dimethylisoxazol-4-yl)-2-methyl-1-(1-phenylethyl)-1H-benzo[d]imidazol-4-amine]: the IC50 (in assay [1]; in the assay with c-myc; in the assay with human AML MV-4-11 cells; in the assay with hIL-6 mRNA) was not above 300 nM in each case.
For `Cc1noc(C)c1-c1cc(N)c2nc(N3CCC3)n(Cc3ccccc3)c2c1` [compound 97, 2-(azetidin-1-yl)-1-benzyl-6-(3,5-dimethylisoxazol-4-yl)-1H-benzo[d]imidazol-4-amine], the IC50 (in assay [1]; with c-myc; in the assay on human AML MV-4-11 cells; in the assay on hIL-6 mRNA) was not above 300 nM throughout.
Turning to `Cc1noc(C)c1-c1cnc2cnn(Cc3ccsc3)c2c1` [compound 98, 3,5-dimethyl-4-(1-(thiophen-3-ylmethyl)-1H-pyrazolo[4,3-b]pyridin-6-yl)isoxazole], the IC50 (in assay [1]; in the assay with c-myc; in the assay with human AML MV-4-11 cells; in the assay with hIL-6 mRNA) was 300 to 3000 nM each time.
Regarding `CC(=O)Nc1cn(Cc2ccccc2)c2cc(-c3c(C)noc3C)cnc12` [compound 99, N-(1-benzyl-6-(3,5-dimethylisoxazol-4-yl)-1H-pyrrolo[3,2-b]pyridin-3-yl)acetamide], the IC50 in assay [1] is not above 300 nM; in the assay with c-myc it was 300 to 3000 nM; in the assay with human AML MV-4-11 cells, 300 to 3000 nM; with hIL-6 mRNA it was 300 to 3000 nM.
For the compound `Cc1noc(C)c1-c1cnc2c(N)cn(Cc3ccccc3)c2c1` [compound 100, 1-benzyl-6-(3,5-dimethylisoxazol-4-yl)-1H-pyrrolo[3,2-b]pyridin-3-amine], the IC50 in assay [1] was not above 300 nM; with c-myc it was 300 to 3000 nM; with human AML MV-4-11 cells, 300 to 3000 nM; in the assay with hIL-6 mRNA it was 300 to 3000 nM.
With `Cc1noc(C)c1-c1cc(N)c2cnn(Cc3ccc(Cl)cc3)c2c1` [compound 102, 1-(4-chlorobenzyl)-6-(3,5-dimethylisoxazol-4-yl)-1H-indazol-4-amine], the IC50 is not above 300 nM in assay [1], not above 300 nM in the assay with c-myc, 300 to 3000 nM in the assay with human AML MV-4-11 cells and not above 300 nM with hIL-6 mRNA.
Take `COc1ccc(Cn2c(=O)[nH]c3c([N+](=O)[O-])cc(-c4c(C)noc4C)cc32)cc1` [compound 103, 6-(3,5-dimethylisoxazol-4-yl)-1-(4-methoxybenzyl)-4-nitro-1H-benzo[d]imidazol-2(3H)-one]: the IC50 in assay [1] was not above 300 nM; in the assay on c-myc it was 300 to 3000 nM; with human AML MV-4-11 cells, 300 to 3000 nM; in the assay with hIL-6 mRNA, 300 to 3000 nM.
`Cc1noc(C)c1-c1cnc2nc(C)n(C(C)c3ccccc3)c2c1` (stereo not drawn) [compound 108, 3,5-dimethyl-4-(2-methyl-1-(1-phenylethyl)-1H-imidazo[4,5-b]pyridin-6-yl)isoxazole]: the IC50 in assay [1] was not above 300 nM; in the assay on c-myc, 300 to 3000 nM; in the assay on human AML MV-4-11 cells it was 300 to 3000 nM; in the assay on hIL-6 mRNA it was not above 300 nM.
On to `Cc1noc(C)c1-c1cc(N)c2nc(NC3CCOCC3)n(Cc3ccccc3)c2c1` [compound 109, 1-benzyl-6-(3,5-dimethylisoxazol-4-yl)-N2-(tetrahydro-2H-pyran-4-yl)-1H-benzo[d]imidazole-2,4-diamine], for which the IC50 (in assay [1]; in the assay on c-myc; in the assay with human AML MV-4-11 cells; in the assay with hIL-6 mRNA) was not above 300 nM throughout.
On to `CC(=O)Nc1cc(-c2c(C)noc2C)cc2c1[nH]c(=O)n2Cc1ccccc1` [compound 111, N-(1-benzyl-6-(3,5-dimethylisoxazol-4-yl)-2-oxo-2,3-dihydro-1H-benzo[d]imidazol-4-yl)acetamide], for which the IC50 (in assay [1]; with c-myc; in the assay with human AML MV-4-11 cells; in the assay with hIL-6 mRNA) was not above 300 nM in each case.
In the case of `CCNc1nc2ncc(-c3c(C)noc3C)cc2n1C(C)c1ccccc1` (stereo not drawn) [compound 113, 6-(3,5-dimethylisoxazol-4-yl)-N-ethyl-1-(1-phenylethyl)-1H-imidazo[4,5-b]pyridin-2-amine], the IC50 (in assay [1]; in the assay with c-myc; in the assay on human AML MV-4-11 cells; in the assay on hIL-6 mRNA) was not above 300 nM throughout.
`Cc1noc(C)c1-c1cnc2nc(N3CCOCC3)n(Cc3ccccc3)c2c1` [compound 114, 4-(1-benzyl-6-(3,5-dimethylisoxazol-4-yl)-1H-imidazo[4,5-b]pyridin-2-yl)morpholine]: the IC50 was not above 300 nM in assay [1], 300 to 3000 nM in the assay with c-myc, 300 to 3000 nM in the assay with human AML MV-4-11 cells and 300 to 3000 nM in the assay with hIL-6 mRNA.
Consider `Cc1noc(C)c1-c1cc(N)c2[nH]c(=O)n(C(C)c3ccccc3)c2c1` (stereo not drawn) [compound 115, 4-amino-6-(3,5-dimethylisoxazol-4-yl)-1-(1-phenylethyl)-1H-benzo[d]imidazol-2(3H)-one], for which the IC50 (in assay [1]; in the assay with c-myc; in the assay with human AML MV-4-11 cells; in the assay with hIL-6 mRNA) was not above 300 nM in each case.
Turning to `Cc1noc(C)c1-c1cc([N+](=O)[O-])c2nc(C)n(CC3CCC3)c2c1` [compound 116, 4-(1-(cyclobutylmethyl)-2-methyl-4-nitro-1H-benzo[d]imidazol-6-yl)-3,5-dimethylisoxazole], the IC50 is not above 300 nM in assay [1], not above 300 nM in the assay with c-myc, not above 300 nM in the assay on human AML MV-4-11 cells and 300 to 3000 nM with hIL-6 mRNA.
For the compound `Cc1noc(C)c1-c1cc([N+](=O)[O-])c2nc(C)n(CC3CCCC3)c2c1` [compound 117, 4-(1-(cyclopentylmethyl)-2-methyl-4-nitro-1H-benzo[d]imidazol-6-yl)-3,5-dimethylisoxazole], the IC50 (in assay [1]; in the assay on c-myc; in the assay on human AML MV-4-11 cells; in the assay with hIL-6 mRNA) was not above 300 nM in each case.
In the case of `Cc1noc(C)c1-c1cnc2[nH]c(=O)n(CC3CC3)c2c1` [compound 118, 1-(cyclopropylmethyl)-6-(3,5-dimethylisoxazol-4-yl)-1H-imidazo[4,5-b]pyridin-2(3H)-one], the IC50 in assay [1] was not above 300 nM; with c-myc it was 300 to 3000 nM; in the assay on human AML MV-4-11 cells it was 300 to 3000 nM; in the assay on hIL-6 mRNA it was 300 to 3000 nM.
Regarding `CCNc1nc2c(NC(C)=O)cc(-c3c(C)noc3C)cc2n1Cc1ccccc1` [compound 119, N-(1-benzyl-6-(3,5-dimethylisoxazol-4-yl)-2-(ethylamino)-1H-benzo[d]imidazol-4-yl)acetamide], the IC50 (in assay [1]; with c-myc; in the assay with human AML MV-4-11 cells; with hIL-6 mRNA) was not above 300 nM throughout.
Take `Cc1noc(C)c1-c1cc(Br)c2nc(C)n(Cc3ccccc3)c2c1` [compound 121, 4-(1-benzyl-4-bromo-2-methyl-1H-benzo[d]imidazol-6-yl)-3,5-dimethylisoxazole]: the IC50 in assay [1] was not above 300 nM; with c-myc, not above 300 nM; in the assay on human AML MV-4-11 cells, not above 300 nM; in the assay with hIL-6 mRNA, 300 to 3000 nM.
On to `CCn1c(=O)n(Cc2ccccc2)c2cc(-c3c(C)noc3C)ccc21` [compound 122], for which the IC50 in assay [1] was not above 300 nM; with c-myc, 300 to 3000 nM; in the assay with human AML MV-4-11 cells, not above 300 nM; in the assay on hIL-6 mRNA, 300 to 3000 nM.
For `Cc1noc(C)c1-c1cnc2nc(N3CCC3)n(Cc3ccccc3)c2c1` [compound 123, 4-(2-(azetidin-1-yl)-1-benzyl-1H-imidazo[4,5-b]pyridin-6-yl)-3,5-dimethylisoxazole], the IC50 is not above 300 nM in assay [1], not above 300 nM in the assay on c-myc, 300 to 3000 nM in the assay on human AML MV-4-11 cells and not above 300 nM with hIL-6 mRNA.
